US11879137B2, “Treatment of type 1 diabetes and autoimmune diseases or disorders” (THE CHILDREN'S MEDICAL CENTER CORPORATION, priority 2017, dated 2024)
Read-outs that look alike come from different tables or passages of the source.

What was measured:
[1] = system: peripheral CD34+ cells; details: after mobilization
Protocol: Data are expressed as mean±standard error of the mean (SEM). Data are representative of at least two independent experiments. *P<0.05; **P<0.01; ***P<0.001. #P<0.05 vs. all
The effect of overcoming PD-L1 deficiency in human HSPCs was tested by using the same agents described herein above (e.g., tested in NOD mice). […] To study the ex vivo immunoregulatory functions of pCD34+, CD34-depleted PBMCs were co-cultured with unmodulated CD34+ or pCD34+ in the presence of insulin-associated autoantigen-2 (I-A2), and the number of IFN-γ-producing cells was quantified in an ELISPOT assay. […] Finally, the effect of plerixafor-mediated mobilization, used in clinic (5, 9), was analyzed on PD-L1 expression in CD34+ cells obtained from 5 T1D patients and 8 healthy controls (Table 10).

[2] = system: PD-L1 in MDA-MB-231 cells; experiment: PD-L1 protein by western blot in transfected MDA-MB-231 cells; format: cell-based, human; details: vs corresponding negative control; 48 h
Protocol: MDA-MB-231 breast cancer cells were cultured in DMEM high glucose medium (Gibco, Thermo Fisher Scientific; Waltham, MA USA) supplemented with 10% heat-inactivated fetal calf serum (Gibco, Thermo Fisher Scientific), 100 units/ml penicillin, 100 μg/ml streptomycin, and 2 mM L-glutamine. 2×10^5 cells were seeded in each well of a 6-well plate and transfected with 10 pmol of the miRNA mimic or miRNA mimic negative control, or 100 pmol of the anti-miR or anti-miR negative control (all from Exiqon, Qiagen) using the Lipofectamine RNAiMAX transfection reagent (Invitrogen, Thermo Fisher Scientific) in a final culture medium volume of 2 ml, following manufacturer's instructions. […] Forty-eight hours after transfection, cells were collected from each well for RNA extraction, cell lysate preparation and FACS analysis. RNA was extracted using Direct-zol RNA miniprep plus (Zymo research, Irvine, CA, USA) and RNA quality was checked and then retro-transcribed using RETROscript® Kit (Fisher Scientific) following manufacturer's instructions. […]
Protein concentration in MDA-MB-231 cell lysates was measured. […] Finally, for the quantification of western blot, images of PVDF membranes were analyzed by ImageJ software to quantify size and strength of protein bands. […]

[3] = system: NEU1, MTOR, MYC, IGF1R, VEGFA, RB1 in MDA-MB-231 cells; experiment: mRNA of validated miRNA target genes (transfection control) in MDA-MB-231 cells; format: cell-based, human; details: VEGFA or RB1 as named for each agent, 48 h after transfection
Protocol: MDA-MB-231 breast cancer cells were cultured in DMEM high glucose medium (Gibco, Thermo Fisher Scientific; Waltham, MA USA) supplemented with 10% heat-inactivated fetal calf serum (Gibco, Thermo Fisher Scientific), 100 units/ml penicillin, 100 μg/ml streptomycin, and 2 mM L-glutamine. 2×10^5 cells were seeded in each well of a 6-well plate and transfected with 10 pmol of the miRNA mimic or miRNA mimic negative control, or 100 pmol of the anti-miR or anti-miR negative control (all from Exiqon, Qiagen) using the Lipofectamine RNAiMAX transfection reagent (Invitrogen, Thermo Fisher Scientific) in a final culture medium volume of 2 ml, following manufacturer's instructions. […] Forty-eight hours after transfection, cells were collected from each well for RNA extraction, cell lysate preparation and FACS analysis. RNA was extracted using Direct-zol RNA miniprep plus (Zymo research, Irvine, CA, USA) and RNA quality was checked and then retro-transcribed using RETROscript® Kit (Fisher Scientific) following manufacturer's instructions. Cell lysates were obtained in RIPA buffer (50 mmol/1 Tris-HCl, pH 8.0, 1% Triton-x, 0.5% sodium deoxycholate, 0.1% SDS, 150 mmol/1 sodium chloride) with protease inhibitor cocktail (Roche).
qRT-PCR for PD-L1 analysis was performed on retro-transcribed cDNA using SYBR® Green dye (Life Technologies, Thermo Fisher Scientific). Amplification was performed on a QuantStudio S6 Real Time PCR system (Thermo Fisher Scientific). To confirm a successful transfection, the mRNA level of genes known to be controlled by the targeted miRNAs were evaluated by SYBR® Green dye (Life Technologies, Thermo Fisher Scientific) according to the manufacturer's instructions. Normalized expression values were determined using the ΔΔCt method in treated as compared to negative treated samples, using GAPDH mRNA as endogenous reference. The miRNA-targeted genes tested, along with forward and reverse primer sequences used for their amplification, are listed in Table 13.
To determine if targeting the miRNA network decreases PD-L1 expression in human cancer setting, PD-L1-expressing MDA-MB-231 human breast cancer cells were transfected with a set of miRNA mimics or anti-miRs to either increase or decrease the function of a set of miRNAs not previously known to affect PD-L1 (miR-125b, miR-99a, miR-744, mir-599, miR-511, miR-206, miR-26b). The effect of treatment with miRNA mimics and anti-miRs on the percentage of PD-L1-expressing cells, as well as on PD-L1 mRNA and protein levels, was investigated. miRNA mimic/anti-miR treated-cells were compared to corresponding mimic/anti-miR negative control-treated cells by flow cytometric analysis, Real Time PCR and western blot to assess percentage of PD-L1-expressing cells, PD-L1 mRNA, and PD-L1 protein levels, respectively. A successful miRNA mimic/anti-miR transfection was confirmed by the detection of changed mRNA levels of the validated miRNA targets NEU1 (for miR-125b mimic), MTOR (for miR-99a mimic), MYC (for miR-744 mimic and miR-599 anti-miR), IGF1R (for miR-511 mimic), VEGFA (for miR-206 anti-miR) and RB1 (for miR-26b anti-miR) in treated cells (FIG. 22A). […] Lysates of miR-511 mimic and miR-206 anti-miR treated cells were not available for western blot analysis.

| Compound | percentage of CD34+PD-L1+ cells ([1]; T1D patients) | percentage and absolute number of CD34+ cells ([1]; 5 T1D patients and 8 healthy controls) | percentage of CD34+PD-L1+ cells ([1]; healthy controls) | PD-L1 protein levels [2] | mRNA levels of the validated miRNA target [3] |
| --- | --- | --- | --- | --- | --- |
| c1cc(CN2CCCNCCNCCCNCC2)ccc1CN1CCCNCCNCCCNCC1 [plerixafor] | remained stable | significantly increased | decreased |  |  |
| miR-599 anti-miR: Anti-miR, GUUUGAUAAACUGACACAAC, SEQ ID NO: 6 (listed as RNA, chemistry not given here) |  |  |  | increase | changed |
